According to ChEMBL document CHEMBL5625175, “Quinazoline-based VEGFR-2 inhibitors as potential anti-angiogenic agents: A contemporary perspective of SAR and molecular docking studies” (Eur J Med Chem, 2023):

How the values were obtained:
[1] = biological target: T1, Vascular endothelial growth factor receptor 2 (Homo sapiens, UniProt P35968); test: Inhibition of VEGF-induced human VEGFR2 autophosphorylation expressed in HUVEC cells measured after 2 hrs by chemiluminescence assay; assay type: cell-based
[2] = biological target: Receptor-type tyrosine-protein kinase FLT3 (Homo sapiens) (UniProt P36888); test: Inhibition of FLT-3 (unknown origin) at 10 uM relative to control
HepG2 [3] = test: Antitumor activity against human HepG2 cells xenografted in athymic nu/nu mouse assessed as tumor growth inhibition at 100 mg/kg, ip administered once daily relative to control; assay type: functional; set-up: scale not given: the % may be the effect or the level left
MCF7 = test: Antitumor activity against human MCF7 cells assessed as reduction in cell growth incubated for 48 hrs by MTT assay; assay type: functional, cell-based; details: MCF7, 48 h
PC-3 = test: Antitumor activity against human PC-3 cells assessed as reduction in cell growth incubated for 48 hrs by MTT assay; assay type: functional, cell-based; details: PC-3, 48 h
HepG2 [4] = test: Antitumor activity against human HepG2 cells assessed as reduction in cell growth incubated for 48 hrs by MTT assay; assay type: functional, cell-based; details: HepG2, 48 h
[5] = biological target: Vascular endothelial growth factor receptor 1 (Homo sapiens, UniProt P17948); test: Inhibition of VEGFR1 (unknown origin) by FRET based Z-LYTE kinase assay
[6] = biological target: T1, Vascular endothelial growth factor receptor 2; test: Inhibition of VEGFR-2 (unknown origin) using poly-Glu-Ala-Tyr-biotin as substrate pre-incubated for 10 mins followed by substrate addition and measured after 30 mins by HTRF method

T1 sequence (P35968 whole entry): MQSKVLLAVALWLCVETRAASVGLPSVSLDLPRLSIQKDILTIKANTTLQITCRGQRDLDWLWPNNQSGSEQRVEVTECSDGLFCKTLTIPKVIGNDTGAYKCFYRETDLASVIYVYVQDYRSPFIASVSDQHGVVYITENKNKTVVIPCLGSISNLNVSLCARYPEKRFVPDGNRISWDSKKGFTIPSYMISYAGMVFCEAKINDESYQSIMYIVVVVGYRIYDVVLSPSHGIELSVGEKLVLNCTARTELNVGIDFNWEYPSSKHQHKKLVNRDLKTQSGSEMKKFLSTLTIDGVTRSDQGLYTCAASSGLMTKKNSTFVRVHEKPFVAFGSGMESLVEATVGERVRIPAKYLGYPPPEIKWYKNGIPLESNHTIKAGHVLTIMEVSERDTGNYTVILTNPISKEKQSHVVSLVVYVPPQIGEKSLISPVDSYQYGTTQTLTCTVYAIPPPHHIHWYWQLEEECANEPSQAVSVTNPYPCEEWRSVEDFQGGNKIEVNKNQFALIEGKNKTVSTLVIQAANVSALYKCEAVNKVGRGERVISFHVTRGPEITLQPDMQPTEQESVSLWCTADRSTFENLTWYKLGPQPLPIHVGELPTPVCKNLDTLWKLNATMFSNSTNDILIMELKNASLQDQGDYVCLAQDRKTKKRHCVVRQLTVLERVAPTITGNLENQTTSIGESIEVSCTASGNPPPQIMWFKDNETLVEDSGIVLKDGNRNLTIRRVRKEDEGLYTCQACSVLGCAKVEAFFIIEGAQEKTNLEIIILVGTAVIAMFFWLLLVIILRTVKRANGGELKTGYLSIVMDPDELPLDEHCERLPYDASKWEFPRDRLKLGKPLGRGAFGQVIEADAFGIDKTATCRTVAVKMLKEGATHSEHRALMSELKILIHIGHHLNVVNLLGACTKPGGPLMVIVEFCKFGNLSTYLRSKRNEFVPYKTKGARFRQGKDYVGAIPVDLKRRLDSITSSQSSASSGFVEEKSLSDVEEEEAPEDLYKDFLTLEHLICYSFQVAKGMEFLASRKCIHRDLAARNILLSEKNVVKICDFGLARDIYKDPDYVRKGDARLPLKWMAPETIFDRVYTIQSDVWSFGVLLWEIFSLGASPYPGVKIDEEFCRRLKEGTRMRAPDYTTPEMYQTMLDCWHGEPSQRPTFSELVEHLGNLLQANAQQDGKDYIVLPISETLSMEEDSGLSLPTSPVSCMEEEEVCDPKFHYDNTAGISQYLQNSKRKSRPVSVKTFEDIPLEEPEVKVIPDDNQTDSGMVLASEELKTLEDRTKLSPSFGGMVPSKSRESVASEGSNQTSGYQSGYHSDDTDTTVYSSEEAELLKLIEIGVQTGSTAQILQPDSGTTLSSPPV
Chain of Vascular endothelial growth factor receptor 1 (P17948 whole entry): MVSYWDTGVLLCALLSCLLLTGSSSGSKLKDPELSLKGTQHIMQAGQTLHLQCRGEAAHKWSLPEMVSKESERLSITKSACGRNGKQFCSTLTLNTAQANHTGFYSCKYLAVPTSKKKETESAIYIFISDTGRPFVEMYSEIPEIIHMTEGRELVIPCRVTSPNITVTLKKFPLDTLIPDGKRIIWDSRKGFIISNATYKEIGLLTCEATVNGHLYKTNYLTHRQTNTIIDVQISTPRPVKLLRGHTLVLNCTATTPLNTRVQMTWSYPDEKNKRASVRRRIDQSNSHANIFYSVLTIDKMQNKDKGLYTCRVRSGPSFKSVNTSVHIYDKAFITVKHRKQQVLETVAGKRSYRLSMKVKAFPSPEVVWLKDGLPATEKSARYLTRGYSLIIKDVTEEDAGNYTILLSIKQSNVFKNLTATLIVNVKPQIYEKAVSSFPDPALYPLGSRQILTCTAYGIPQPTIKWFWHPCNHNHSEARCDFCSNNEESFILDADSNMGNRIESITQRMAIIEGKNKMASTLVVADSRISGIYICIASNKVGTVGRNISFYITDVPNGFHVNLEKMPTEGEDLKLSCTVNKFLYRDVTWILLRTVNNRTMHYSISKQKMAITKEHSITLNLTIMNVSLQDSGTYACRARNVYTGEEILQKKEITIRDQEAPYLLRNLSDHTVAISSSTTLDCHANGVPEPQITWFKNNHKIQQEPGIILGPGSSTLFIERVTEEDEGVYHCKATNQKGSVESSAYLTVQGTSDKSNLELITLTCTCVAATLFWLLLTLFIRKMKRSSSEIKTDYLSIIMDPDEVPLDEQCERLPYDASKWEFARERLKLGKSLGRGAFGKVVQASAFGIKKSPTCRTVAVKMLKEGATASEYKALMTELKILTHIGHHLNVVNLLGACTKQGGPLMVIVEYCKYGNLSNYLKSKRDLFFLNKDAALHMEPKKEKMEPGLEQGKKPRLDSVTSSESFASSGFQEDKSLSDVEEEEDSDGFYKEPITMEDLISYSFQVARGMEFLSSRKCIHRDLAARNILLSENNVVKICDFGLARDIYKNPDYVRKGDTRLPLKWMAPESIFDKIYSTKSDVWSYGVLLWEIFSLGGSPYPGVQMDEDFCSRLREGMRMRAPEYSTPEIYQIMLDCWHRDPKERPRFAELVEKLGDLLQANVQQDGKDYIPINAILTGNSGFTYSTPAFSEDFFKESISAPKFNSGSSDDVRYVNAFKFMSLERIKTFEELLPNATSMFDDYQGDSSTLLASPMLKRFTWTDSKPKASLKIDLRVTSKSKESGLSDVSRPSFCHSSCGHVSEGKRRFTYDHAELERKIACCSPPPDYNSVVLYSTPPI
Chain of Receptor-type tyrosine-protein kinase FLT3 (Homo sapiens) (P36888 whole entry): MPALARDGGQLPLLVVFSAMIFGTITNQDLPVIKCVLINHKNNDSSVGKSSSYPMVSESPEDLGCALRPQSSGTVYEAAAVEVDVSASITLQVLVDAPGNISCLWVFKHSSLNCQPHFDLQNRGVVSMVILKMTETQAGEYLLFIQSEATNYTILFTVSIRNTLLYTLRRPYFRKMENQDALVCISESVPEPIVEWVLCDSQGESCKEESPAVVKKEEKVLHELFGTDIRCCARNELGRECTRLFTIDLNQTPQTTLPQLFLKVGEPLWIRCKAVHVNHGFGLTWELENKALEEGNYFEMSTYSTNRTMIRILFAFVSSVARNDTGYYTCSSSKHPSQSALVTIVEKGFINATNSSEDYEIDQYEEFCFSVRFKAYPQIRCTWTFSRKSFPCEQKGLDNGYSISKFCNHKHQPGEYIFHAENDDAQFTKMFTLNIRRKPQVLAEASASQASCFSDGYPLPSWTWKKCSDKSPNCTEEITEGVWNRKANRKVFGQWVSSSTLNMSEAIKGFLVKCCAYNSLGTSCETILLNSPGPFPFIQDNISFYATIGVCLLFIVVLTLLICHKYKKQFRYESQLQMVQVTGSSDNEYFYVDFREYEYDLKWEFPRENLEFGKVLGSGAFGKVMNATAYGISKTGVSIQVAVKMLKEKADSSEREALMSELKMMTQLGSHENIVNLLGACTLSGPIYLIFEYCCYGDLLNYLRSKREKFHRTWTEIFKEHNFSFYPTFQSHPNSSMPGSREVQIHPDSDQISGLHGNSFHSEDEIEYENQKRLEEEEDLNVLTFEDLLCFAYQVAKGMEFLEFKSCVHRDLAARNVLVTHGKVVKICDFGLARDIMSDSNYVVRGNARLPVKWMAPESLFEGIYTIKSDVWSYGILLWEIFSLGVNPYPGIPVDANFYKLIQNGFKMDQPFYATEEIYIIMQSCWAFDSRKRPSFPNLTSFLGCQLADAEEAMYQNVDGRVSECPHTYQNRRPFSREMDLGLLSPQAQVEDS

COc1cc2ncnc(Sc3nnc(C)s3)c2cc1OC
IC50 [1]: 11.9 µM
inhibition [2]: 91%
Activity (HepG2 [3]): 60%

O=C(Nc1ccc(Oc2nc(Cl)nc3ccccc23)cc1)c1cccnc1
IC50 (MCF7): 33.4 µM
IC50 (PC-3): 40.9 µM
IC50 (HepG2 [4]): 24.1 µM

CNC(=O)c1nc(Nc2ccc(NC(=O)Nc3cccc(C)c3)cc2)c2ccccc2n1
IC50 [5]: 0.0121 µM

COc1cc2ncnc(Nc3ccncc3C(=O)NCc3cccs3)c2cc1OC
IC50 [6]: 0.017 µM
